Consider 88 molecules from the RepoRT retention time repository (doi:10.1016/j.chroma.2019.01.023).

SMILES strings stand for the structures.

Series [1] is described as follows: HILIC, Waters ACQUITY UPLC BEH Amide, 150 × 2.1 mm, 1.7 µm, 40 °C, 0.5 mL/min, estimated dead time 0.66 min; A: 5% water + 95% acetonitrile; B: 70% water + 30% acetonitrile + 10 mM ammonium formate, pH 6.5; gradient (min/%B) 0/0 2/0 20/70 23/70 24/0 31/0. The following applies: stereoisomer not certain.
The nature of series [2]: HILIC, Merck SeQuant ZIC-pHILIC, 150 × 2.1 mm, 5 µm, 40 °C, 0.3 mL/min, estimated dead time 1.1 min; A: acetonitrile; B: water + 2.8 mM ammonium formate, pH 9; gradient (min/%B) 0/5 1/5 10/51 13/51 13.1/5 20/5. The following applies: stereoisomer not certain.

Consider `CC12CCC(O)CC1CCC1C2C(O)CC2(C)C1CCC2(O)C(=O)CO` (configuration not stated), for which the LC retention time in series [1] is 0.99 min. `Cn1cnc(C[C@H](N)C(=O)O)c1` [1-METHYL-L-HISTIDINE]: the LC retention time in series [2] was 8.97 min; in series [1], 13.2 min. Turning to `C[n+]1cccc(C(N)=O)c1` [1-METHYLNICOTINAMIDE], the LC retention time in series [1] is 8.27 min. As to `O=CC[C@@H](O)[C@H](O)[C@H](O)CO` [2-DEOXY-D-GLUCOSE], the figures for the LC retention time in series [2] and in series [1] were 8.23 min and 4.02 min, respectively. In the case of `O=c1cccc[nH]1` [2-HYDROXYPYRIDINE], in series [1], the LC retention time was 1.56 min.

As for `CC(O)CC(=O)[O-]` (configuration not stated) [3-HYDROXYBUTANOATE], the LC retention time in series [1] was 1.37 min. `COc1cc(CCN)ccc1O` [3-METHOXYTYRAMINE]: in series [1], the LC retention time was 0.84 min. As to `CC1C(=O)Nc2ccccc21` (configuration not stated) [3-METHYL-2-OXINDOLE], the LC retention time in series [1] was 0.84 min.

For the molecule `Cn1cnc(=N)c2[nH]cnc21` [3-METHYLADENINE], in series [1], the LC retention time was 5.66 min. As to `Cn1cncc1CCN` [3-METHYLHISTAMINE], the LC retention time in series [1] is 9.57 min. In the case of `O=C(O)Cc1cnc[nH]1` [4-IMIDAZOLEACETATE], the LC retention time in series [2] was 8.13 min; in series [1], 9.86 min. As for `NCCCCC(=O)O` [5-AMINOPENTANOATE], the LC retention time in series [1] is 10.4 min.

On to `Cc1cnc(=O)[nH]c1N` [5-METHYLCYTOSINE], for which the LC retention time was 6.24 min in series [2] and 5.31 min in series [1].

As to `O=C1CCCCO1` [5-VALEROLACTONE], the LC retention time in series [1] was 1.14 min. On the same count and under the same terms, the value for `CC(=O)C(C)O` (configuration not stated) [ACETOIN] was 8.78 min. Consider `CC(=O)OCC[N+](C)(C)C` [ACETYLCHOLINE], for which the LC retention time in series [1] was 6.38 min. As for `NCCCCN=C(N)N.O=S(=O)(O)O` [AGMATINE SULFATE], the LC retention time in series [1] is 14 min. For `NC(=O)NC1NC(=O)NC1=O` (configuration not stated) [ALLANTOIN], the LC retention time was 7.96 min in series [2] and 4.85 min in series [1]. In the case of `NC(CCCC(=O)O)C(=O)O` (configuration not stated) [AMINOADIPATE], the LC retention time was 8.78 min in series [2] and 6.89 min in series [1].

For the molecule `Cn1cncc1CC(NC(=O)CCN)C(=O)O` (configuration not stated) [ANSERINE], the LC retention time in series [2] was 10.1 min; in series [1], 12.5 min. Consider `Nc1ccccc1C(=O)[O-]` [ANTHRANILATE], for which the LC retention time in series [1] is 1.11 min.

With `NC(N)=NCCCC(N)C(=O)O` (configuration not stated) [ARGININE], the LC retention time is 3.62 min in series [2] and 14.2 min in series [1]. As to `NC(=O)CC(N)C(=O)O` (configuration not stated) [ASPARAGINE], the LC retention time in series [2] is 9.25 min; in series [1], 11.5 min. Take `NC(CC(=O)O)C(=O)O` (configuration not stated) [ASPARTATE]: the LC retention time in series [1] was 1.93 min. On to `NCc1ccccc1` [BENZYLAMINE], for which, in series [1], the LC retention time was 7.09 min.

For the molecule `NCCC(=O)O` [BETA-ALANINE], the LC retention time in series [1] is 10.4 min. Turning to `C[N+](C)(C)CC(=O)[O-]` [BETAINE], in series [1], the LC retention time was 7.63 min. Consider `CCCC(=O)[O-]` [BUTANOATE], for which the LC retention time in series [1] is 1.29 min.

In the case of `NCCC(=O)NC(Cc1cnc[nH]1)C(=O)O` (configuration not stated) [CARNOSINE], the LC retention time in series [2] was 10.5 min; in series [1], 12.3 min. For the molecule `OCC1OC(OC2C(CO)OC(O)C(O)C2O)C(O)C(O)C1O` (configuration not stated) [CELLOBIOSE], in series [1], the LC retention time was 10.9 min. Still for that read-out and setting: the value for `C[N+](C)(C)CCO` [CHOLINE] was 7.51 min. Turning to `C[N+](C)(C)CCOP(=O)(O)OP(=O)([O-])OCC1OC(n2ccc(N)nc2=O)C(O)C1O` (configuration not stated) [CITICOLINE], the LC retention time in series [2] was 8.89 min; in series [1] it was 13.4 min. `NC(=O)NCCCC(N)C(=O)O` (configuration not stated) [CITRULLINE]: the LC retention time in series [2] was 9.31 min; in series [1] it was 11.3 min. As for `CN(CC(=O)O)C(=N)N` [CREATINE], the LC retention time in series [2] is 8.59 min; in series [1], 9.87 min.

With `CN1CC(=O)NC1=N` [CREATININE], the results for the LC retention time in series [2] and in series [1] were 5.92 min and 4.34 min, respectively. `NC(CS(=O)(=O)O)C(=O)O` (configuration not stated) [CYSTEATE]: the LC retention time was 8.92 min in series [2] and 10.8 min in series [1]. `Nc1ccnc(=O)[nH]1` [CYTOSINE]: the LC retention time in series [1] is 5.15 min. With `O=CC(O)C1OC(=O)C(O)C1O` [D-GLUCURONOLACTONE], the LC retention time in series [2] is 6.28 min; in series [1] it was 1.86 min.

As to `NCCC[C@@H](N)C(=O)O` [D-ORNITHINE], the LC retention time in series [1] was 14.4 min. With `C[N+](C)(C)CCCC(=O)[O-]` [DEOXYCARNITINE], the LC retention time in series [1] is 10.8 min. Consider `OCCNCCO` [DIETHANOLAMINE], for which the LC retention time in series [1] was 8.78 min. Take `O=C1CC(C(=O)[O-])NC(=O)N1` (configuration not stated) [DIHYDROOROTATE]: the LC retention time in series [2] was 7.81 min; in series [1], 7.2 min. Regarding `O=C1CCNC(=O)N1` [DIHYDROURACIL], the LC retention time in series [1] is 1.45 min. On to `CCCCCCCCCCCCCCCC(=O)OCC(COP(=O)(O)OCCN)OC(=O)CCCCCCCCCCCCCCC` (configuration not stated) [DIPALMITOYL-PHOSPHOETHANOLAMINE], for which the LC retention time in series [1] was 4.45 min.

As to `OCC(O)C(O)CO` (configuration not stated) [ERYTHRITOL], the LC retention time in series [1] was 3.99 min. With `NCCCC(=O)O` [GAMMA-AMINOBUTYRATE], the LC retention time in series [1] is 10.2 min.

As for `NC1C(O)OC(COS(=O)(=O)O)C(O)C1O` (configuration not stated) [GLUCOSAMINE 6-SULFATE], the values for the LC retention time in series [2] and in series [1] were 10.5 min and 10.6 min, respectively. Take `NC1C(O)OC(CO)C(O)C1O` (configuration not stated) [GLUCOSAMINE]: in series [1], the LC retention time was 11.3 min. `NC(=O)CCC(N)C(=O)O` (configuration not stated) [GLUTAMINE]: the LC retention time in series [2] was 9.03 min; in series [1], 11 min. With `COc1ccccc1O` [GUAIACOL], the LC retention time in series [1] was 0.89 min. In the case of `NC(N)=NCC(=O)O` [GUANIDINOACETATE], the LC retention time in series [2] was 9.05 min; in series [1] it was 10.2 min.

`NC(N)=NC(CC(=O)O)C(=O)O` (configuration not stated) [GUANIDINOSUCCINATE]: the results for the LC retention time in series [2] and in series [1] were 9 min and 10.3 min, respectively. Regarding `CCCCCC(=O)[O-]` [HEXANOATE], the LC retention time in series [1] was 0.91 min. With `NCCc1cnc[nH]1` [HISTAMINE], the LC retention time in series [1] is 9.43 min.

For `NC(CO)Cc1cnc[nH]1` (configuration not stated) [HISTIDINOL], the LC retention time in series [1] was 9.82 min. For the molecule `NC1CCSC1=O` (configuration not stated) [HOMOCYSTEINE THIOLACTONE], the LC retention time in series [1] was 1.05 min.

For the molecule `NC(CCO)C(=O)O` (configuration not stated) [HOMOSERINE], the figures for the LC retention time in series [2] and in series [1] were 8.91 min and 10.5 min, respectively. Turning to `CC(C)C(=O)O` [ISOBUTYRATE], the LC retention time in series [1] was 8.79 min. Same read-out and setting: the same measure for `CC(C)CC(=O)C(=O)O` [KETOLEUCINE]: 1.86 min; for `C[C@H](N)C(=O)O` [L-ALANINE]: 9.76 min.

Regarding `O=C1OC(C(O)CO)C(O)C1O` [L-GULONOLACTONE], the LC retention time in series [2] is 7.2 min; in series [1] it was 3.12 min. For the molecule `CCCCCCCCCCCC(=O)OC(CC(=O)[O-])C[N+](C)(C)C` (configuration not stated) [LAUROYLCARNITINE], in series [1], the LC retention time was 6.24 min. With `NC(=O)C=CC(=O)O` [MALEAMATE], in series [1], the LC retention time is 2.1 min.

On to `OCC1OC(OCC2OC(O)C(O)C(O)C2O)C(O)C(O)C1O` (configuration not stated) [MELIBIOSE], for which the LC retention time in series [2] is 9.37 min; in series [1], 11.8 min. For `COC(=O)CC(C)=O` [METHYL ACETOACETATE], in series [1], the LC retention time is 1.63 min. With `CN=C(N)N` [METHYLGUANIDINE], the LC retention time in series [1] is 8 min. With `COC(=O)CCCC(=O)O` [MONOMETHYLGLUTARATE], the LC retention time in series [1] was 2.48 min. The same measure, in the same setting: the same measure for `C[N+](C)(C)CCCCC(N)C(=O)O` (configuration not stated) [N,N,N-TRIMETHYLLYSINE]: 0.83 min; for `CN(C)c1ccc(N)cc1` [N,N-DIMETHYL-1,4-PHENYLENEDIAMINE]: 0.91 min. `CN(C)C(N)=NCCCC(N)C(=O)O` (configuration not stated) [N,N-DIMETHYLARGININE]: the LC retention time in series [1] was 13 min.

`CC(=O)NCCCCN` [N-ACETYLPUTRESCINE]: in series [1], the LC retention time is 8.45 min.

Regarding `CNCCc1c[nH]c2ccccc12` [N-METHYLTRYPTAMINE], in series [1], the LC retention time is 6.64 min. As for `NC(=O)c1cccnc1` [NICOTINAMIDE], the LC retention time in series [1] was 1.38 min. With `CN1CCCC1c1cccnc1` (configuration not stated) [NICOTINE], the LC retention time in series [1] is 2.9 min.

In the case of `NCCCNCCCN` [NORSPERMIDINE], the LC retention time in series [1] is 8.25 min. As for `CCCCCCCCCCCCCCCC(=O)OC(CC(=O)[O-])C[N+](C)(C)C` (configuration not stated) [PALMITOYLCARNITINE], in series [1], the LC retention time is 5.9 min. Take `CCCCC(=O)[O-]` [PENTANOATE]: in series [1], the LC retention time is 8.25 min. Same read-out and setting: the value for `NCCc1ccccc1` [PHENETHYLAMINE] was 7 min.

For `NCC(O)c1ccccc1` (configuration not stated) [PHENYLETHANOLAMINE], in series [1], the LC retention time was 7.74 min. For `NCCCCN` [PUTRESCINE], the LC retention time in series [1] is 0.94 min. With `c1ccc2ncccc2c1` [QUINOLINE], the LC retention time in series [1] is 0.91 min.

On to `CNCC(=O)O` [SARCOSINE], for which the LC retention time in series [1] is 9.54 min.

On to `CCCCCCCCCCCCCCCC(O)C(N)CO` (configuration not stated) [SPHINGANINE], for which the LC retention time in series [1] was 5.14 min. Still for that read-out and setting: the same measure for `CCCCCCCCCCCCCC=CC(O)C(COP(=O)([O-])OCC[N+](C)(C)C)NC(=O)CCCCCCCCCCCCCCCCC` (configuration not stated) [SPHINGOMYELIN]: 5.7 min.

As for `NC(N)=S` [THIOUREA], the LC retention time in series [1] is 1.17 min.

For `CC(O)C(N)C(=O)O` (configuration not stated) [THREONINE], the LC retention time in series [1] is 10.5 min. As to `C[n+]1cccc(C(=O)[O-])c1` [TRIGONELLINE], the LC retention time in series [1] is 7.85 min. Same read-out and setting: the same measure for `NCCc1ccc(O)cc1` [TYRAMINE]: 7.72 min.
